Legend:
[1] = test system: conscious dogs; experiment: Effects of caffeine alone on MAP and HR in conscious dogs (Part I); format: in vivo, dog
Procedure: Sixteen chronically instrumented male mongrel dogs weighing from 22-30 kg were used in the study. The animal protocol was approved by the Institutional Animal Care and Use Committee of New York Medical College and conforms to the Guide for the Care and Use of Laboratory Animal by the United States National Institutes of Health.
Dogs were sedated with acepromazine (0.3 mg/kg, IM) and anesthetized with pentobarbital sodium (25 mg/kg, IV). After intubation, dogs were artificially ventilated with room air. A thoracotomy was made in the fifth intercostal space using sterile techniques. A Tygon catheter (Cardiovascular Instruments, Wakefield, Mass.) was inserted into the descending thoracic aorta and another one was inserted into the left atrium. In 9 dogs, an ultrasound flow transducer (Transonic Systems, Ithaca, N.Y.) was placed around the left circumflex coronary artery. A solid-state pressure gauge (P6.5, Konisberg Instruments, Pasadena, Calif.) was placed into the left ventricle through the apex. The chest was closed in layers. The catheters and wires were tunneled subcutaneously and externalized through the skin at the back of the dog's neck. Dogs were allowed to recover from the surgery before experiments were performed, and were trained to lie on a table.
Phasic arterial pressure was measured by connecting the aortic catheter to a strain gauge transducer (P23 ID, LDS Test and Measurement, Valley View, Ohio). Left ventricular pressures were measured by the solid pressure gauge. CBF (mL/min) was measured from an ultrasound flow transducer using a Transonic flowmeter (T206, Transonic Systems, Ithaca, N.Y.). Two indices were used to describe the regadenoson-induced coronary vasodilation: 1) the maximum increase in CBF and 2) the duration of the 2-fold increase in CBF (the period of time that CBF was elevated to a level ≧2-fold of baseline CBF). All pressure and flow data were acquired and analyzed using a Ponemah System (Version 3.30 or 4.20, LDS Test and Measurement, Valley View, Ohio). MAP and HR were calculated from phasic blood pressure, and LV dP/dtMax was calculated from the left ventricular systolic pressure.
On the day of an experiment, a dog was placed on a table, where it lay quietly during the experiment. A catheter was inserted into a peripheral vein in the leg and attached to an infusion line to administer drugs without disturbing the dog. The experiment was begun after MAP, HR and CBF were stable.
(§1) Three experiments were performed on each dog in the group.
The statistical significance of a difference between the value of a parameter at baseline and at the indicated time point after drug administration was determined using a One-Way Repeated Measures ANOVA followed by Tukey's Test. […] Results with p<0.05 were considered to be significant. A computer-based software package (SigmaStat 2.03) was used for statistical analysis. All data are presented as Mean±SEM.

[2] = test system: normal subjects; experiment: PET myocardial blood flow / coronary flow reserve after regadenoson with and without caffeine, crossover study; format: in vivo, human; conditions: for log CFR±SE: n=40
Procedure: 15O water was used as the radionuclide in the PET scans. There was a 1- to 14-day washout period between dosing days. Blood samples and measures of safety were collected until 120 minutes after study drug administration.
The CVT tracking number for the placebo capsules was 1341 (Leg 2).
The primary efficacy measure was the log coronary flow reserve (CFR), which is the ratio of stress MBF after regadenoson dosing to the resting MBF.
The data were also to be analyzed using Wilcoxon's rank-sum test.

[3] = Plasma caffeine concentrations in conscious dogs; format: in vivo; conditions: dog, intravenous, 10 mg/kg
Procedure: as §1
(§2) Each dog received an IV injection of 5 μg/kg of regadenoson. […] LVSP, LV dP/dtMax, MAP, HR and CBF were recorded continuously. Blood samples were taken from the left atrial catheter at 1, 3, 5, 15, 30, 45 and 60 min following injections of regadenoson.

[4] = Plasma regadenoson concentrations in conscious dogs; format: in vivo, dog
Procedure: as §2

[5] = test system: conscious dogs; experiment: Effects of regadenoson on HR and CBF before and after metoprolol in conscious dogs; format: in vivo, dog; conditions: for duration of two-fold increase in CBF: in the presence of metoprolol 1.5 mg/kg
Procedure: Five mongrel dogs were chronically instrumented for measurements of systemic hemodynamics and coronary blood flow (CBF). The effects of regadenoson (1, 2.5 and 5 μg/kg, IV) on HR and CBF were assessed before and after administration of the β1-adrenergic receptor blocker metoprolol (1.5 mg/kg). Values of peak CBF and the duration of the two-fold increase in CBF above baseline were used to assess Reg-induced coronary vasodilation.

[6] = caffeine 200 mg po, regadenoson 400 μg IV
[7] = regadenoson 400 μg IV after caffeine 200 mg po
[8] = regadenoson 400 μg IV after placebo capsule
[9] = Reg 1 μg/kg IV, before metoprolol
[10] = Reg 2.5 μg/kg IV, before metoprolol
[11] = Reg 5 μg/kg IV, before metoprolol

## Cn1c(=O)c2c(ncn2C)n(C)c1=O [Caffeine, caffeine]
[1]; caffeine 2 mg/kg IV
  changes in MAP and HR: no significant changes
[1]; caffeine 2 mg/kg IV, 2.5 min
  HR: 95 ± 5 beats/min
[1]; caffeine 2 mg/kg IV, 5 min
  HR: 91 ± 5 beats/min
[1]; caffeine 2 mg/kg IV, 15 min
  HR: 85 ± 6 beats/min
[1]; caffeine 2 mg/kg IV, 30 min
  HR: 81 ± 7 beats/min
[1]; caffeine 2 mg/kg IV, 60 min
  HR: 90 ± 9 beats/min
[1]; caffeine 2 mg/kg IV, 90 min
  HR: 87 ± 5 beats/min
[1]; caffeine 2 mg/kg IV, 120 min
  HR: 88 ± 6 beats/min
[1]; caffeine 4 mg/kg IV
  change in HR: without a significant change
[1]; caffeine 4 mg/kg IV, 2.5 min
  HR: 104 ± 5 beats/min
[1]; caffeine 4 mg/kg IV, 5 min
  HR: 102 ± 4 beats/min
[1]; caffeine 4 mg/kg IV, 15 min
  HR: 88 ± 6 beats/min
  MAP: 99 ± 4 mm Hg
[1]; caffeine 4 mg/kg IV, 30 min
  HR: 90 ± 7 beats/min
[1]; caffeine 4 mg/kg IV, 60 min
  HR: 85 ± 7 beats/min
[1]; caffeine 4 mg/kg IV, 90 min
  HR: 90 ± 7 beats/min
[1]; caffeine 4 mg/kg IV, 120 min
  HR: 86 ± 5 beats/min
[1]; caffeine 4 mg/kg IV, at both 2.5 and 5 min after injection
  increase in MAP: ~12 mm Hg
[1]; caffeine 10 mg/kg IV, 2.5 min
  HR: 100 ± 4 beats/min
[1]; caffeine 10 mg/kg IV, 5 min
  HR: 101 ± 4 beats/min
[1]; caffeine 10 mg/kg IV, 15 min
  HR: 93 ± 5 beats/min
[1]; caffeine 10 mg/kg IV, 30 min
  HR: 87 ± 5 beats/min
  MAP: 101 ± 3 mm Hg
[1]; caffeine 10 mg/kg IV, 60 min
  HR: 83 ± 2 beats/min
[1]; caffeine 10 mg/kg IV, 90 min
  HR: 80 ± 5 beats/min
[1]; caffeine 10 mg/kg IV, 120 min
  HR: 80 ± 4 beats/min
  MAP: 102 ± 2 mm Hg
[2]; caffeine 200 mg po vs placebo, regadenoson 400 μg IV
  change in CFR (95% confidence): < 20%
[2]; [6]
  exponentiated lower limit of 90% confidence interval for log CFR (caffeine versus placebo difference): 0.80
  exponentiated lower limit of 95% confidence interval for log CFR (caffeine versus placebo difference): 0.78
  exponentiated upper limit of 90% confidence interval for log CFR (caffeine versus placebo difference): 1.06
  exponentiated upper limit of 95% confidence interval for log CFR (caffeine versus placebo difference): 1.08
  interaction of caffeine with regadenoson on CFR by sex: no significant interaction
[2]; [7]
  CFR (stress/rest): 2.75±0.16
  log CFR±SE: 0.95±0.06
[3]
  concentration at 45 min: 52 ± 2 µM

## CNC(=O)c1cnn(-c2nc(N)c3ncn([C@@H]4O[C@H](CO)[C@@H](O)[C@H]4O)c3n2)c1 [Regadenoson, (1-{9-[(4S,2R,3R,5R)-3,4-dihydroxy-5-(hydroxymethyl)oxolan-2-yl]-6-aminopurin-2-yl}pyrazol-4-yl)-N-methylcarboxamide]
[2]; [8]
  CFR (stress/rest): 2.97±0.16
  log CFR±SE: 1.03±0.06
[4]; caffeine at 1, 2, 4 or 10 mg/kg
  pharmacokinetic profiles of regadenoson in presence of caffeine: not changed
[4]; regadenoson 5 μg/kg IV, absence of caffeine
  time of peak plasma regadenoson concentration: ~1 min
[5]; Reg 1 μg/kg IV, after metoprolol 1.5 mg/kg IV
  increase in HR (ΔHR): 19±4 bpm
[5]; [9]
  duration of 2-fold increase in CBF: 93 ± 22 s
  increase in HR (ΔHR): 49±8 bpm
  increase in peak CBF (ΔCBF): 129 ± 10 mL/min
[5]; Reg 1 μg/kg IV
  duration of two-fold increase in CBF: 71 ± 34 s
[5]; Reg 1 μg/kg IV, in the presence of metoprolol 1.5 mg/kg (NS)
  increase in peak CBF (ΔCBF): 112 ± 5 mL/min
[5]; Reg 2.5 μg/kg IV, after metoprolol 1.5 mg/kg IV
  increase in HR (ΔHR): 28±3 bpm
[5]; [10]
  duration of 2-fold increase in CBF: 316 ± 57 s
  increase in HR (ΔHR): 63±5 bpm
  increase in peak CBF (ΔCBF): 149 ± 7 mL/min
[5]; Reg 2.5 μg/kg IV
  duration of two-fold increase in CBF: 215 ± 45 s
[5]; Reg 2.5 μg/kg IV, in the presence of metoprolol 1.5 mg/kg (NS)
  increase in peak CBF (ΔCBF): 136 ± 16 mL/min
[5]; Reg 5 μg/kg IV, after metoprolol 1.5 mg/kg IV
  increase in HR (ΔHR): 39±5 bpm
[5]; [11]
  duration of 2-fold increase in CBF: 593 ± 86 s
  increase in HR (ΔHR): 71±7 bpm
  increase in peak CBF (ΔCBF): 174 ± 10 mL/min
[5]; Reg 5 μg/kg IV
  duration of two-fold increase in CBF: 364 ± 86 s
[5]; Reg 5 μg/kg IV, in the presence of metoprolol 1.5 mg/kg (p<0.05)
  increase in peak CBF (ΔCBF): 138 ± 9 mL/min

Source: patent US20100086483A1, “METHOD OF MULTIDETECTOR COMPUTED TOMAGRAPHY” (Gilead Palo Alto, Inc., priority 2008, published 2010)
